According to PubChem BioAssay (NCI):
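Exposure lasted 48 hours, with cells grown in 96-well plates and compounds tested at five concentrations. TGI marks complete inhibition of growth.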

Assays:
Assay in all cases: NCI tumour cell line growth inhibition, 48 h
[1] = system: HT29 colon
[2] = system: SF-268 CNS
[3] = system: HL-60(TB) leukemia
[4] = system: OVCAR-3 ovarian
[5] = system: SW-620 colon
[6] = system: SF-539 CNS
[7] = system: OVCAR-8 ovarian
[8] = system: DLD-1 colon
[9] = system: UACC-257 melanoma
[10] = system: CCRF-CEM leukemia
[11] = system: HCT-116 colon
[12] = system: NCI-H226 lung
[13] = system: TK-10 renal
[14] = system: SNB-75 CNS
[15] = system: ACHN renal
[16] = system: UACC-62 melanoma
[17] = system: UO-31 renal
[18] = system: IGROV1 ovarian
[19] = system: RPMI-8226 leukemia
[20] = system: HCC-2998 colon
[21] = system: HOP-92 NSCLC
[22] = system: LXFL 529 NSCLC
[23] = system: SF-295 CNS
[24] = system: KM12 colon
[25] = system: K-562 leukemia
[26] = system: MOLT-4 leukemia
[27] = system: NCI-H460 lung
[28] = system: M19-MEL melanoma
[29] = system: A549 NSCLC
[30] = system: SR leukemia
[31] = system: U251 CNS
[32] = system: COLO 205 colon
[33] = system: SK-MEL-28 melanoma
[34] = system: SK-MEL-5 melanoma
[35] = system: NCI-H522 lung
[36] = system: HOP-18 NSCLC
[37] = system: SNB-19 CNS
[38] = system: SK-OV-3 ovarian
[39] = system: NCI-H23 lung
[40] = system: HOP-62 NSCLC

Measured: TGI

Nc1c(C(=O)N/N=C/c2ccccc2)sc(=S)n1-c1ccccc1
> 100 µM: [1] | [2] | [3] | [4] | [5] | [6] | [7] | [8] | [9] | [10] | [11] | [12] | [13] | [14] | [15] | [16] | [17] | [18] | [19] | [20] | [21] | [22] | [23] | [24] | [25] | [26] | [27] | [28] | [29] | [30] | [31] | [32] | [33] | [34] | [35] | [36] | [37] | [38] | [39] | [40]
